Test results taken from ChEMBL document CHEMBL1133000, “Inhibition of protein kinase C(alpha) by dequalinium analogues: dependence on linker length and geometry” (J Med Chem, 2000).

Biological target: Protein kinase C alpha type (Homo sapiens, UniProt P17252)
Experiment: Inhibition of human recombinant PKCalpha

Row | IC50 | Structure (SMILES)
1 | 52 µM | Cc1cc(N)c2ccccc2[n+]1CCCC/C=C\CCCC[n+]1c(C)cc(N)c2ccccc21
2 | 137 µM | CCCC/C=C/CCCC[n+]1c(C)cc(N)c2ccccc21
3 | 12 µM | Cc1cc(N)c2ccccc2[n+]1CCCC/C=C/CCCC[n+]1c(C)cc(N)c2ccccc21
